Source: patent US10385057B2, “Pyrazole compounds and methods of making and using same” (Lundbeck La Jolla Research Center, Inc., priority 2015, dated 2019)

Legend:
MAGL = biological target: T1, MAGL (Mus musculus, UniProt O35678); assay: In vitro competitive activity-based protein profiling, mouse MAGL; assay type: biochemical; details: for inhibition at 1 µM: read-out: MAGL % inh. 1 μM (mouse)
T1 construct: mouse brain membrane fraction or cell lysates for mouse assays; from tissue
T1 sequence (O35678 1-303): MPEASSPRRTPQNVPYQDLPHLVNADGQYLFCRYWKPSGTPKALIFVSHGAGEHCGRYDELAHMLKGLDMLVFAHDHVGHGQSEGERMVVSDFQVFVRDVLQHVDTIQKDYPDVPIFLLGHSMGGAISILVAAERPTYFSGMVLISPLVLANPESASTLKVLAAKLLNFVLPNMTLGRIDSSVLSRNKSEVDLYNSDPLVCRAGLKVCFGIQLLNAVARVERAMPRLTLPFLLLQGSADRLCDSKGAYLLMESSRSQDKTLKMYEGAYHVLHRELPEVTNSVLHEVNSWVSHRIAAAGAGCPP
Experimental: (§1) In Vitro Competitive Activity-Based Protein Profiling.
(§2) Proteomes (mouse brain membrane fraction or cell lysates for mouse assays; human prefrontal cortex or cell membrane fractions for human assays) (50 μL, 1.0 mg/mL total protein concentration) were preincubated with varying concentrations of inhibitors at 37° C. After 30 min, FP-Rh or HT-01 (1.0 μL, 50 μM in DMSO) was added and the mixture was incubated for another 30 min at 37° C. Reactions were quenched with SDS loading buffer (15 μL—4×) and run on SDS-PAGE. Following gel imaging, serine hydrolase activity was determined by measuring fluorescent intensity of gel bands corresponding to MAGL and FAAH using ImageJ 1.43u software.

FAAH = biological target: T2, FAAH (Mus musculus, UniProt O08914); assay: In vitro competitive activity-based protein profiling, mouse FAAH; assay type: biochemical; details: for inhibition at 1 µM: read-out: FAAH % inh. 1 μM (mouse)
T2 construct: mouse brain membrane fraction or cell lysates for mouse assays; from tissue
T2 sequence (O08914 1-579): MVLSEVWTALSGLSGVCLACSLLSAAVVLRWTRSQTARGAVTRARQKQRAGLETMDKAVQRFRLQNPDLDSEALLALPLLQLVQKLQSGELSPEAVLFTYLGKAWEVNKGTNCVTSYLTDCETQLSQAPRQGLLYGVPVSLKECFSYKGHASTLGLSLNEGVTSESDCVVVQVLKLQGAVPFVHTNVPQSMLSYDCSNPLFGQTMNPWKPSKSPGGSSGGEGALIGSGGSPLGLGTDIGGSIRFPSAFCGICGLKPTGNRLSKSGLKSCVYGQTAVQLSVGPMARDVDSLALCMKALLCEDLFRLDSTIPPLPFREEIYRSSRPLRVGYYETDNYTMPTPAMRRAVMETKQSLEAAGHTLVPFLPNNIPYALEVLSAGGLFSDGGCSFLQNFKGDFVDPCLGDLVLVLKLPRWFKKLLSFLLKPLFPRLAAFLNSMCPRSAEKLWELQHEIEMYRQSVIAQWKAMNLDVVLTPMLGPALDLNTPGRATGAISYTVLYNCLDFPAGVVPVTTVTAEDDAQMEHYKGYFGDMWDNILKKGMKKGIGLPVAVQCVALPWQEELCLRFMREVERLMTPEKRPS
Experimental: as §1, §2

Row | IC50 (MAGL) [nM] | inhibition at 1 µM (MAGL) [%] | IC50 (FAAH) [nM] | inhibition at 1 µM (FAAH) [%] | Structure (SMILES)
1 | 100 to 1000 | ≥ 75 | ≤ 100 | ≥ 75 | O=C(N1CCC2(CCN(Cc3cccc(Cl)c3)C2)C1)n1cc(Cl)cn1 (single isomer, unassigned) [Example 132, (4-chloro-1H-pyrazol-1-yl)(7-(3-chlorobenzyl)-2,7-diazaspiro[4.4]nonan-2-yl)methanone]
2 | 100 to 1000 | – | ≤ 100 | – | O=C(N1CCC2(CCN(Cc3cccc(Cl)c3)C2)C1)n1cc(Cl)cn1 (single isomer, unassigned) [Example 133, (4-chloro-1H-pyrazole-1-carbonyl)-7-[(3-chlorophenyl)methyl]-2,7-diazaspiro[4.4]nonane]
3 | 100 to 1000 | – | ≤ 100 | – | O=C(N1CCC2(CCN(Cc3ccc(Cl)c(Cl)c3)C2)C1)n1cc(Cl)cn1 (single isomer, unassigned) [Example 139, (4-chloro-1H-pyrazol-1-yl)(7-(3,4-dichlorobenzyl)-2,7-diazaspiro[4.4]nonan-2-yl)methanone]
4 | ≤ 100 | – | ≤ 100 | – | O=C(N1CCC2(CCN(Cc3ccc(Cl)c(Cl)c3)C2)C1)n1cc(Cl)cn1 (single isomer, unassigned) [Example 140, (4-chloro-1H-pyrazol-1-yl)(7-(3,4-dichlorobenzyl)-2,7-diazaspiro[4.4]nonan-2-yl)methanone]
5 | 1000 to 10000 | 25 to 50 | ≤ 100 | ≥ 75 | O=C(c1cnn(C(=O)N2CC3CN(Cc4ccccc4Cl)CC3C2)c1)N1CCCCC1 (centres unmarked) [Example 1, (5-(2-chlorobenzyl)hexahydropyrrolo[3,4-c]pyrrol-2(1H)-yl)(4-(piperidine-1-carbonyl)-1H-pyrazol-1-yl)methanone]
6 | ≤ 100 | ≥ 75 | ≤ 100 | ≥ 75 | NC(=O)c1cnn(C(=O)N2CC3CN(Cc4ccc(N5CCOCC5)cc4C(F)(F)F)CC3C2)c1 (centres unmarked) [Example 2, 1-(5-(4-morpholino-2-(trifluoromethyl)benzyl)octahydropyrrolo[3,4-c]pyrrole-2-carbonyl)-1H-pyrazole-4-carboxamide]
7 | 1000 to 10000 | 50 to 75 | 100 to 1000 | ≥ 75 | O=C(c1cnn(C(=O)N2CC3CN(Cc4cccc(Cl)c4)CC3C2)c1)N1CCCCC1 (centres unmarked) [Example 3, (5-(3-chlorobenzyl)hexahydropyrrolo[3,4-c]pyrrol-2(1H)-yl)(4-(piperidine-1-carbonyl)-1H-pyrazol-1-yl)methanone]
8 | 1000 to 10000 | 25 to 50 | 100 to 1000 | ≥ 75 | O=C(c1cnn(C(=O)N2CC3CN(Cc4ccc(Cl)cc4)CC3C2)c1)N1CCCCC1 (centres unmarked) [Example 4, (5-(4-chlorobenzyl)hexahydropyrrolo[3,4-c]pyrrol-2(1H)-yl)(4-(piperidine-1-carbonyl)-1H-pyrazol-1-yl)methanone]
9 | – | ≥ 75 | – | ≥ 75 | O=C(c1cnn(C(=O)N2CC3CN(Cc4cc(Cl)ccc4Cl)CC3C2)c1)N1CCOCC1 (centres unmarked) [Example 5, (5-(2,5-dichlorobenzyl)hexahydropyrrolo[3,4-c]pyrrol-2(1H)-yl)(4-(morpholine-4-carbonyl)-1H-pyrazol-1-yl)methanone]
10 | – | ≥ 75 | – | 0 to 25 | O=C(c1cnn(C(=O)N2CC3CN(Cc4cc(Cl)ccc4Cl)CC3C2)c1)N1CCN(C2CC2)CC1 (centres unmarked) [Example 6, (4-cyclopropylpiperazin-1-yl)(1-(5-(2,5-dichlorobenzyl)octahydropyrrolo[3,4-c]pyrrole-2-carbonyl)-1H-pyrazol-4-yl)methanone]
11 | – | ≥ 75 | – | ≥ 75 | O=C(c1cnn(C(=O)N2CC3CN(Cc4cccc(C(F)(F)F)c4)CC3C2)c1)N1CCOCC1 (centres unmarked) [Example 7, (4-(morpholine-4-carbonyl)-1H-pyrazol-1-yl)(5-(3-(trifluoromethyl)benzyl)hexahydropyrrolo[3,4-c]pyrrol-2(1H)-yl)methanone]
